Converted amounts (≈) assume the structure as drawn.
Tests used:
Caco-2 = experiment: Cytotoxicity against human Caco2 cells after 48 hrs by MTT assay; assay type: functional, cell-based; conditions: Caco-2, 48 h
NIH3T3 = experiment: Cytotoxicity against mouse NIH/3T3 cells after 96 hrs by MTT assay; assay type: cell-based; conditions: NIH3T3, 96 h
T47D = experiment: Cytotoxicity against human T47D cells after 48 hrs by MTT assay; assay type: functional, cell-based
HT-29 = experiment: Cytotoxicity against human HT-29 cells after 48 hrs by MTT assay; assay type: functional, cell-based; conditions: HT-29, 48 h
HCT-116 = experiment: Cytotoxicity against human HCT116 cells; assay type: functional, cell-based
Bel-7402 = experiment: Cytotoxicity against human Bel7402 cells; assay type: functional, cell-based

Structure (SMILES) | IC50 (Caco-2) [µg/mL] | IC50 (NIH3T3) [µg/mL] | IC50 (T47D) [µg/mL] | IC50 (HT-29) [µg/mL] | IC50 (HCT-116) [µM] | IC50 (Bel-7402) [µM]
O=C(/C=C/c1ccc(O)cc1)c1c(O)cc(O)cc1O[C@@H]1O[C@H](CO)[C@@H](O)[C@H](O)[C@H]1O | 8.45 (≈ 19.5 µM) | > 200 | > 200 |  |  | 
O=c1c(-c2ccc(O[C@@H]3O[C@H](CO)[C@@H](O)[C@H](O)[C@H]3O)c(O)c2)coc2cc(O)cc(O)c12 | 0.006 (≈ 0.0134 µM) | > 200 | 0.169 (≈ 0.377 µM) | 0.009 (≈ 0.0201 µM) |  | 
COc1cc(-c2oc3cc(O)cc(O)c3c(=O)c2O[C@@H]2O[C@H](CO)[C@@H](O)[C@H](O)[C@H]2O[C@@H]2O[C@@H](C)[C@H](O)[C@@H](O)[C@H]2O)ccc1O | 2.47 (≈ 3.95 µM) | > 200 | 0.003 (≈ 0.0048 µM) |  | 72 | 74.4
CN(Cc1cnc2nc(N)nc(N)c2n1)c1ccc(C(=O)N[C@@H](CCC(=O)O)C(=O)O)cc1 [METHOTREXATE] |  | 0.24 (≈ 0.528 µM) |  |  |  | 
